We go through four molecules from ChEMBL document CHEMBL4732205, “Structure-based optimization identified novel furyl-containing 2,4-diarylaminopyrimidine analogues as ALK/ROS1 dual inhibitors with anti-mutation effects” (Eur J Med Chem, 2021).

For one experiment, the system named is KARPAS-299. Briefly: Antiproliferative activity against human KARPAS-299 cells assessed as reduction in cell growth incubated for 72 hrs by MTT assay. Format: functional, cell-based. As to conditions: KARPAS-299, 72 h. Background: Tetrazolium dyes change colour on reduction, which living cells bring about.
Experiment [1] relates to NCI-H2228. Briefly: Antiproliferative activity against human NCI-H2228 cells assessed as reduction in cell growth incubated for 72 hrs by MTT assay. Format: functional, cell-based. As to conditions: NCI-H2228, 72 h.
A further experiment concerns A549. Briefly: Antiproliferative activity against human A549 cells assessed as reduction in cell growth incubated for 72 hrs by MTT assay. Format: functional, cell-based. Particulars: A549, 72 h.
The next experiment concerns MCF7. The experiment is described as follows: Antiproliferative activity against human MCF7 cells assessed as reduction in cell growth incubated for 72 hrs by MTT assay. As to conditions: MCF7, 72 h. Format: functional, cell-based.
Experiment [2] addresses T1, ALK tyrosine kinase receptor (Homo sapiens, UniProt Q9UM73). The experiment is described as follows: Inhibition of recombinant human N-terminal GST-tagged ALK (1058 to 1620 residues) expressed in baculovirus expression system using Srctide as substrate incubated for 1 hr by mobility shift assay.
Experiment [3] deals with ALK tyrosine kinase receptor (Homo sapiens, UniProt Q9UM73, L1196M). The experiment is described as follows: Inhibition of recombinant human N-terminal GST-tagged ALK L1196M mutant (1058 to 1620 residues) expressed in baculovirus expression system using Srctide as substrate incubated for 1 hr by mobility shift assay.
For experiment [4], the target named is ALK tyrosine kinase receptor (Homo sapiens, UniProt Q9UM73, G1202R). The experiment is described as follows: Inhibition of recombinant human N-terminal GST-tagged ALK G1202R mutant (1058 to 1620 residues) expressed in baculovirus expression system using Srctide as substrate incubated for 1 hr by mobility shift assay.
ALK tyrosine kinase receptor (Homo sapiens, UniProt Q9UM73, G1202R), sequence (Q9UM73 19-1620 G1202R limits assumed): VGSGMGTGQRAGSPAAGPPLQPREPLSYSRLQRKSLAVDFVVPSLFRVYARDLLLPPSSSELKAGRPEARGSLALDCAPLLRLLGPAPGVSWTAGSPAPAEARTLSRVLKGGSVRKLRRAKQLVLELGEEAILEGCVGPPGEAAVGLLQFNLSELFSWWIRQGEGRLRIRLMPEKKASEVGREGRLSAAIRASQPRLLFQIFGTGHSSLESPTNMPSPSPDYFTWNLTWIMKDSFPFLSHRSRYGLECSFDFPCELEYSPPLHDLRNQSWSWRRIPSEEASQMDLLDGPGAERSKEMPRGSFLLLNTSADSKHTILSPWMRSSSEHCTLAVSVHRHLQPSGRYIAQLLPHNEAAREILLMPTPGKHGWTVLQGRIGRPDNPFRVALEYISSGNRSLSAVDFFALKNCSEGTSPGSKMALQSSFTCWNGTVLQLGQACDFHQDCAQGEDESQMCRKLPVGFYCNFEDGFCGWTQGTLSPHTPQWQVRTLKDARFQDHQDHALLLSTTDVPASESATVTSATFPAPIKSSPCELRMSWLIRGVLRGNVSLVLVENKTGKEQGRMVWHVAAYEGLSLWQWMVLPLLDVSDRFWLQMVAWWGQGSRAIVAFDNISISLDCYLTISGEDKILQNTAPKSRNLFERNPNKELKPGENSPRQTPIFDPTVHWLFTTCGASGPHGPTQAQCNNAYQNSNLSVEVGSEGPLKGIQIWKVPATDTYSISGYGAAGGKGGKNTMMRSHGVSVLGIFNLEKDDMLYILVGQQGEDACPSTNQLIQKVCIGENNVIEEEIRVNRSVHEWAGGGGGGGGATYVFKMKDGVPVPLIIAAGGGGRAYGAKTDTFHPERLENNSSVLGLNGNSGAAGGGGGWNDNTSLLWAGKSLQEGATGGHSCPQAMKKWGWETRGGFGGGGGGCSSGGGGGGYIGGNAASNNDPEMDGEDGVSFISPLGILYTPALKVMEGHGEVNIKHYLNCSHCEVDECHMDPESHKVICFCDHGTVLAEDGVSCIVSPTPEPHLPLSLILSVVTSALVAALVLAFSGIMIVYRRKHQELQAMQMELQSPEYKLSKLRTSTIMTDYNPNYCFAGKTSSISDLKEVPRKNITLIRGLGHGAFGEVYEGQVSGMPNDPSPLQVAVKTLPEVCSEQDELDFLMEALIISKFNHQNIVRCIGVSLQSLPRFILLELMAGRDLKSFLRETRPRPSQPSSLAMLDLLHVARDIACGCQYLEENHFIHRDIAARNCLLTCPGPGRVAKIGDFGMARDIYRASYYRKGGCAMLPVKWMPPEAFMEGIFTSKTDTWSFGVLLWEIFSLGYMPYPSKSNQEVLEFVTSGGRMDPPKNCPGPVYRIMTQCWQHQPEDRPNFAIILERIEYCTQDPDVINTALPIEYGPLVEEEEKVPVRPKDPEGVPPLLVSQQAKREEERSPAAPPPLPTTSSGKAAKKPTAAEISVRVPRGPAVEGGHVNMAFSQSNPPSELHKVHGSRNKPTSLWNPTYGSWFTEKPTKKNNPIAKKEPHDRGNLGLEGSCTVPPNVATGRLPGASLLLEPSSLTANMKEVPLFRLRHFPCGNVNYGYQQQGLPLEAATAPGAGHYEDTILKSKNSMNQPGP
Experiment [5] addresses Proto-oncogene tyrosine-protein kinase ROS (Homo sapiens, UniProt P08922). The experiment is described as follows: Inhibition of recombinant human N-terminal GST-tagged ROS1 (1883 to 2347 residues) expressed in baculovirus expression system using IRS1 as substrate incubated for 1 hr by mobility shift assay.
The target in experiment [6] is Epidermal growth factor receptor (Homo sapiens, UniProt P00533). Briefly: Inhibition of recombinant human N-terminal GST-tagged EGFR (669 to 1210 residues) expressed in baculovirus expression system using Srctide as substrate incubated for 1 hr by mobility shift assay.
Experiment [7] has as its system ALK tyrosine kinase receptor (Homo sapiens), Q9UM73 [L1196M]. Briefly: Potency index, ratio of IC50 of ceritinib to IC50 of compound for inhibition of recombinant human N-terminal GST-tagged ALK L1196M mutant (1058 to 1620 residues) expressed in baculovirus expression system using Srctide as substrate incubated for 1 hr by mobility shift assay.
The test system of experiment [8] is ALK tyrosine kinase receptor (Homo sapiens), Q9UM73 [G1202R]. Briefly: Potency index, ratio of IC50 of ceritinib to IC50 of compound for inhibition of recombinant human N-terminal GST-tagged ALK G1202R mutant (1058 to 1620 residues) expressed in baculovirus expression system using Srctide as substrate incubated for 1 hr by mobility shift assay.
The target of experiment [9] is T1, ALK tyrosine kinase receptor. The experiment is described as follows: Inhibition of ALK in human NCI-H2228 cells assessed as reduction in ALK phosphorylation incubated for 24 hrs by Western blot analysis. Format: cell-based.
Target sequence in this assay (Q9UM73 19-1620 limits assumed): as the sequence (Q9UM73 19-1620 G1202R limits assumed) above, with R1184G counted along it
For experiment [10] the target is unchanged. Briefly: Inhibition of ALK in human NCI-H2228 cells assessed as reduction in ALK phosphorylation at 100 nM incubated for 24 hrs by Western blot analysis relative to control. The format is cell-based.
Target sequence in this assay (Q9UM73 19-1620 limits assumed): as the sequence (Q9UM73 19-1620 G1202R limits assumed) above, with R1184G counted along it
Experiment [11] shares this target. The experiment is described as follows: Inhibition of ALK in human NCI-H2228 cells assessed as reduction in Akt phosphorylation at 25 to 100 nM incubated for 24 hrs by Western blot analysis. As to conditions: dose 25-100 nM. The format is cell-based. (A western blot detects proteins with antibodies after separation by electrophoresis.)
Target sequence in this assay (Q9UM73 19-1620 limits assumed): as the sequence (Q9UM73 19-1620 G1202R limits assumed) above, with R1184G counted along it
The target is the same in experiment [12]. Briefly: Inhibition of ALK in human NCI-H2228 cells assessed as reduction in Erk phosphorylation at 25 to 100 nM incubated for 24 hrs by Western blot analysis. As to conditions: dose 25-100 nM. The format is cell-based.
Target sequence in this assay (Q9UM73 19-1620 limits assumed): as the sequence (Q9UM73 19-1620 G1202R limits assumed) above, with R1184G counted along it
Experiment [13] shares this target. The experiment is described as follows: Inhibition of ALK in human NCI-H2228 cells assessed as reduction in Akt expression at 25 to 100 nM incubated for 24 hrs by Western blot analysis. Format: cell-based. Particulars: dose 25-100 nM.
Target sequence in this assay (Q9UM73 19-1620 limits assumed): as the sequence (Q9UM73 19-1620 G1202R limits assumed) above, with R1184G counted along it
For experiment [14] the target is unchanged. The experiment is described as follows: Inhibition of ALK in human NCI-H2228 cells assessed as reduction in ERK expression at 25 to 100 nM incubated for 24 hrs by Western blot analysis. The format is cell-based. Particulars: dose 25-100 nM.
Target sequence in this assay (Q9UM73 19-1620 limits assumed): as the sequence (Q9UM73 19-1620 G1202R limits assumed) above, with R1184G counted along it
The test system of experiment [15] is NCI-H2228. The experiment is described as follows: Effect on ALK expression in human NCI-H2228 cells at 25 to 100 nM incubated for 24 hrs by Western blot analysis. The format is functional, cell-based. Particulars: dose 25-100 nM.
Experiment [16] has as its system NCI-H2228. Briefly: Induction of apoptosis in human NCI-H2228 cells assessed as morphological changes incubated for 48 hrs by Hoechst-33258 staining based fluorescence microscopic analysis. Format: functional, cell-based. As to conditions: dose 30-120 nM.
Experiment [17] concerns NCI-H2228. Briefly: Induction of apoptosis in human NCI-H2228 cells assessed as morphological changes at 30 nM incubated for 48 hrs by AO-EB staining based fluorescence microscopic analysis. The format is functional, cell-based.
For experiment [18], the system named is NCI-H2228. The experiment is described as follows: Induction of apoptosis in human NCI-H2228 cells assessed as early apoptotic cells by observing morphological changes of cell at 120 nM incubated for 48 hrs by AO-EB staining based fluorescence microscopic analysis. The format is functional.

Active and inactive are the calls of the source. The calls are words filed in the database; no cut-off is given here.

Proto-oncogene tyrosine-protein kinase ROS, sequence (P08922 whole entry, the tested form may be a part): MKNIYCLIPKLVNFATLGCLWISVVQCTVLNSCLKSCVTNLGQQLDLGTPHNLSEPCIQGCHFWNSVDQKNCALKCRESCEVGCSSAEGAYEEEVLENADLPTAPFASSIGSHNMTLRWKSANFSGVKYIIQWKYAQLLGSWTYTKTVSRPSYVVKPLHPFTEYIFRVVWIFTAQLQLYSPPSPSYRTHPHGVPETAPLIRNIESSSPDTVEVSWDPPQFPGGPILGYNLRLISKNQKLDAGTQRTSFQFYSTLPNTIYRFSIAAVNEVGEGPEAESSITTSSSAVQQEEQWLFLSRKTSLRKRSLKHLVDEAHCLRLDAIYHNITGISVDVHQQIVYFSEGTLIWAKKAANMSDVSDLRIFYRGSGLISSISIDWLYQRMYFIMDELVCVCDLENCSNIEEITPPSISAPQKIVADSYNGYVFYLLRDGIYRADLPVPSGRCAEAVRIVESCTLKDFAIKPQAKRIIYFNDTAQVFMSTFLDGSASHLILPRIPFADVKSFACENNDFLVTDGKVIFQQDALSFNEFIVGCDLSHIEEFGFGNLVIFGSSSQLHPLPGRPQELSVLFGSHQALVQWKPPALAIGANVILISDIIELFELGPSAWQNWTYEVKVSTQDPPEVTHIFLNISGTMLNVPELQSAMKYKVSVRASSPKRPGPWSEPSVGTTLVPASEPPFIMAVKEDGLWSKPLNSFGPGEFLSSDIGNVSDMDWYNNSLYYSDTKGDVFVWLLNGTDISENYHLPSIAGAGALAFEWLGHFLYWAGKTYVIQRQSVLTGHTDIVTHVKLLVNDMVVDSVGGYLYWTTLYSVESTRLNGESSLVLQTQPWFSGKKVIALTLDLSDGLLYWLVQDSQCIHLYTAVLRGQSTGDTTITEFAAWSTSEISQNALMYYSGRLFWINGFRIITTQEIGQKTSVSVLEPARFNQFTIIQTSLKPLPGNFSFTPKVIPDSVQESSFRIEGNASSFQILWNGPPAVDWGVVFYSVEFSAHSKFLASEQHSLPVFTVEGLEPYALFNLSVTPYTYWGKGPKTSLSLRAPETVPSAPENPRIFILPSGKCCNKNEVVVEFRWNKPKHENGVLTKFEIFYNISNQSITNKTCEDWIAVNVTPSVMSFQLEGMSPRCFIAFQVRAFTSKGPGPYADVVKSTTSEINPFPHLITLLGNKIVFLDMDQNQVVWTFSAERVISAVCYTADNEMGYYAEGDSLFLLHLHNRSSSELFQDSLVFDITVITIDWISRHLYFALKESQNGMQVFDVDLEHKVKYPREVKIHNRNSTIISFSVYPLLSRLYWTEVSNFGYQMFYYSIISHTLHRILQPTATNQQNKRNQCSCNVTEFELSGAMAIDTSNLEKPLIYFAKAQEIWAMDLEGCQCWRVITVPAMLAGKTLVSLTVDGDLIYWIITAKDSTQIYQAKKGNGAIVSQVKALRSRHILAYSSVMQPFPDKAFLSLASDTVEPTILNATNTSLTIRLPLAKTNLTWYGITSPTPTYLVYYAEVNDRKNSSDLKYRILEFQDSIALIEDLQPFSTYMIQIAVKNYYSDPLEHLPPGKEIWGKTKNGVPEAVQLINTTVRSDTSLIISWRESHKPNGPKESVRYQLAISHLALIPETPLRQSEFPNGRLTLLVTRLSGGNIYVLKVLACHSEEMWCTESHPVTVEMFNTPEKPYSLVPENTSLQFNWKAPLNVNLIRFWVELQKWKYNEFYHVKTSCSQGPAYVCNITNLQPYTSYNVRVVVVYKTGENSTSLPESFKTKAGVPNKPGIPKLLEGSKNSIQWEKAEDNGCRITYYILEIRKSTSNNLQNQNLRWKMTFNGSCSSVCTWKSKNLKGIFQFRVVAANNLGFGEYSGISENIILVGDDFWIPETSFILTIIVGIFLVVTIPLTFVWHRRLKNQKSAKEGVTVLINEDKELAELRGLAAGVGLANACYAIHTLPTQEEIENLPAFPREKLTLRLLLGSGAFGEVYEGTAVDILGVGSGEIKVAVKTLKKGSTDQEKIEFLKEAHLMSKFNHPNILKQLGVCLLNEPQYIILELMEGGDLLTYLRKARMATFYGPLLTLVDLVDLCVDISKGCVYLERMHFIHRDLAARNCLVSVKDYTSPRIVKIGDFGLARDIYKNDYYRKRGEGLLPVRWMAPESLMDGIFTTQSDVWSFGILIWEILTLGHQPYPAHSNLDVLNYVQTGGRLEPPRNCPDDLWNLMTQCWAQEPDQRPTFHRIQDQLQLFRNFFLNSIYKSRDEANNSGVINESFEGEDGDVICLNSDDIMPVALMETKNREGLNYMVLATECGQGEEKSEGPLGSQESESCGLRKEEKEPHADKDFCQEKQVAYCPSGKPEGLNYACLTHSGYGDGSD

What is called IC50 is the concentration that gives 50% inhibition. For the molecule `COc1cc(NCC2CCCO2)ccc1Nc1ncc(Cl)c(Nc2ccccc2NS(C)(=O)=O)n1` (stereo not drawn), the IC50 with KARPAS-299 was 250 nM; in the experiment on NCI-H2228 [1], 140 nM; in the experiment with A549, 800 nM; in the experiment on MCF7 it was above 10000 nM; in [2], 3.2 nM; in experiment [3] it was 5.8 nM. For the same molecule, the values for the IC50 in experiment [4], in [5] and in experiment [6] were 4.5 nM, 4.6 nM and above 1000 nM, respectively.
As for `COc1cc(SCc2ccc(CN3CCCC3)o2)ccc1Nc1ncc(Cl)c(Nc2ccccc2NS(C)(=O)=O)n1`, the IC50 in the experiment on KARPAS-299 is 70 nM; with NCI-H2228 [1], 140 nM; in the experiment with A549, above 10000 nM; in the experiment with MCF7, 2810 nM; in experiment [2] it was 3.4 nM; in experiment [3], 2.8 nM. The values for the half-inhibitory concentration (IC50) in [4], in experiment [5] and in experiment [6] were 3.9 nM, 4.2 nM and above 1000 nM, respectively.
For the molecule `COc1cc(OCC2CCCO2)ccc1Nc1ncc(Cl)c(Nc2ccccc2NS(C)(=O)=O)n1` (stereo not drawn), the IC50 in the experiment with KARPAS-299 is 190 nM; in the experiment on NCI-H2228 [1], 90 nM; in the experiment with A549, above 10000 nM; in the experiment on MCF7, above 10000 nM; in experiment [2], 3 nM; in experiment [3] it was 3.3 nM. The values for the IC50 in experiment [4], in experiment [5] and in experiment [6] were 2.1 nM, 3.7 nM and above 1000 nM, respectively.
What is called inhibition is the percentage by which the read-out fell short of the control. For the molecule `COc1cc(SCc2ccc(CN(C)C)o2)ccc1Nc1ncc(Cl)c(Nc2ccccc2NS(C)(=O)=O)n1`, the IC50 in the experiment on KARPAS-299 was 20 nM; in the experiment with NCI-H2228 [1], 110 nM; in the experiment with A549, above 10000 nM; in the experiment with MCF7 it was above 10000 nM; in experiment [2] it was 2.8 nM; in experiment [3], 2.6 nM. The values for the IC50 in experiment [4], in experiment [5] and in [6] were 3.8 nM, 2.3 nM and above 1000 nM, respectively. In addition, the Ratio IC50 in experiment [7] and in experiment [8] was 5 each time. The inhibition entry in experiment [9] is “Dose-dependent effect”; in [10], 100%. Also, the inhibition entry in experiment [11], in [12], in experiment [13] and in experiment [14] was “Active” throughout. Besides, the outcome in the experiment on NCI-H2228 [15], in the experiment with NCI-H2228 [17] and with NCI-H2228 [18] was Active. Also, the Activity result in the experiment with NCI-H2228 [16] is “Dose-dependent effect”.
